The values below come from ChEMBL document CHEMBL1132391, “The sulfonimidamide as a novel transition state analog for aspartic acid and metallo proteases” (Bioorg Med Chem Lett, 1999).

In general, IC50 refers to the concentration at which inhibition is half-maximal.

Assay [1] is described as follows: (§1) Tested for the inhibitory activity against Carboxypeptidase A (mixture of diastereomers).
For assay [2], the target named is T1, Human immunodeficiency virus type 1 protease (Human immunodeficiency virus 1, UniProt Q72874). The assay is described as follows: Tested for the inhibitory activity against HIV protease.
The target of assay [3] is T2, Pepsin A (Sus scrofa, UniProt P00791). In words: Tested for the inhibitory activity against pepsin.
The target of assay [4] is T1, Human immunodeficiency virus type 1 protease. In words: Tested for the inhibitory activity against HIV protease (First pure eluting diastereomer).
Assay [5] shares this target. The assay is described as follows: Tested for the inhibitory activity against HIV protease (Second pure eluting diastereomer ).
For assay [6], the target named is T2, Pepsin A. The assay is described as follows: Tested for the inhibitory activity against pepsin (Second pure eluting diastereomer ).
Assay [7] addresses T2, Pepsin A. The assay is described as follows: Tested for the inhibitory activity against pepsin (First pure eluting diastereomer).
Assay [8] can be described thus: as §1. This is another data set of the same source.

T2 sequence (P00791 whole entry): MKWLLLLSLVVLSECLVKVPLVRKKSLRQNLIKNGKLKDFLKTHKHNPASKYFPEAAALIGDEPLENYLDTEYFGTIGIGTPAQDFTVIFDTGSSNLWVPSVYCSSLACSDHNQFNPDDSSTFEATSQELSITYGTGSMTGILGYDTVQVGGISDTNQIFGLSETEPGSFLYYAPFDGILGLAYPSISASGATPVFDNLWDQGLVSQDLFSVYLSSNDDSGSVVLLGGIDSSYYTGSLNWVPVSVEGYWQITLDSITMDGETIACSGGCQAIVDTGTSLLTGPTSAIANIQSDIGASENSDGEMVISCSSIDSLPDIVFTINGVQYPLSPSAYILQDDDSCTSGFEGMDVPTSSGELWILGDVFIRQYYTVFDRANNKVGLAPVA

Consider `O=C(CCc1ccccc1)N[C@@H](Cc1ccccc1)C(=O)O`, for which the Km in assay [1] worked out at 2.1.

With `O=C(CCc1ccccc1)NCC(=O)OCc1ccccc1`, the IC50 in assay [2] and in assay [3] was greater than 3 mM each time.

For the compound `N[S+]([O-])(CCc1ccccc1)=NCC(=O)OCc1ccccc1` (configuration not stated), the IC50 in assay [2] is greater than 5 mM; in assay [3], 0.7 mM.

Consider `COC(=O)[C@H](Cc1ccccc1)NC(=O)CCc1ccccc1`, for which the 50% inhibitory concentration (IC50) in assay [2] and in assay [3] was greater than 3 mM throughout.

Take `COC(=O)[C@H](Cc1ccccc1)N=[S+](N)([O-])CCc1ccccc1` (some centres not stated): the IC50 in assay [4] is 1 mM; in assay [5], greater than 5 mM; in assay [6], 700 µM; in assay [7], 700 µM.

On to `N[S+]([O-])(CCc1ccccc1)=N[C@@H](Cc1ccccc1)C(=O)O` (some centres not stated), for which, in assay [8], the IC50 turned out to be 20 µM.
